Source: patent US8759363B2, “Quinazoline-based T cell proliferation inhibitors” (Yissum Research Development Company of the Hebrew …, priority 2010, dated 2014)

Test system: PBMC
Test: PBMC proliferation, BrdU incorporation
Assay type: cell-based, human
Conditions: Homo sapiens; ConA-stimulated PBMC, BrdU uptake; nM ± SD; read-out: IC50 PBMC proliferation inhibition
Experimental: Blood samples were taken from healthy donors and loaded on a Ficoll density gradient to purify the PBMC population. T cells were purified by human anti-CD3 using an autoMACS instrument (Miltenyi Biotec, Bergisch-Gladbach, Germany), according to the manufacturer's instructions. The identity of T cells was confirmed by flow cytometry, as they stained positive for CD3. Cells were stimulated with ConA (10 μg/ml), ODN2006 (0.5 μg/ml; Enzo Life Sciences), or LPS (50 μg/ml; Sigma-Aldrich, Steinheim, Germany), for 72 h in the presence of the inhibitor, and their proliferation was measured in the BrdU incorporation assay as will be later described.
(§1) Cells were depleted of fetal calf serum (FCS) for 12 hours. They were then stimulated to proliferate by addition of ConA (10 μg/ml) for PBMC from healthy individuals and for Jurkat cells, FCS (10%) for HEK293 and A375 cells, PDGF (30 ng/ml) for NIH 3T3 cells, and EGF (30 ng/ml) for MDA-MB-231, Cells (1×10^5) were cultured in 96-well plates for 3 days in the presence or absence of inhibitors at the concentrations specified in the text. Each condition was tested in duplicate wells.
(§2) Proliferation was assessed by BrdU incorporation using a colorimetric ELISA kit (Roche, Germany). Subsequent to labeling with 10 μM BrdU, DNA was denatured and the cells were incubated with anti-BrdU-POD, prior to the addition of colorimetric substrate (TMB). The reaction product was quantified by measuring absorbance at 450 nm in an ELISA plate reader (ELx800 BIO-TEK Instruments Inc.).
(§3) Since we were not prejudiced towards any specific protein kinase, we used a biological assay for T cell proliferation. We tested our libraries for inhibition of proliferation of PBMC and Jurkat cells (Table 3). Cell proliferation was measured by BrdU uptake. […] PBMC cells were stimulated by a non-specific T cell mitogen, Concanavalin A (ConA). All of the compounds that were tested inhibited proliferation at micromolar or sub-micromolar concentrations.

Row | SMILES | IC50 [nM]
1 | Oc1cc(-c2nc(NCc3ccc(Cl)c(Cl)c3)c3ccccc3n2)cc(O)c1O [Compound 32, 5-(4-(3,4-dichlorobenzylamino)quinazolin-2-yl)benzene-1,2,3-triol] | 2600 ± 0.24
2 | Oc1cc(-c2nc(NCc3ccc(F)c(F)c3)c3ccccc3n2)cc(O)c1O [Compound 31, 5-(4-(3,4-difluorobenzylamino)quinazolin-2-yl)benzene-1,2,3-triol] | 280 ± 0.04
3 | COc1cc(-c2nc(NCc3ccc(Cl)c(Cl)c3)c3ccccc3n2)cc(OC)c1OC [Compound 13, N-(3,4-dichlorobenzyl)-2-(3,4,5-trimethoxyphenyl)quinazolin-4-amine] | 300 ± 0.14
4 | COc1cc(-c2nc(Nc3ccc4c(c3)OCO4)c3ccccc3n2)cc(OC)c1OC [Compound 18, N-(benzo[d][1,3]dioxol-5-yl)-2-(3,4,5-trimethoxyphenyl) quinazolin-4-amine] | 380 ± 0.04
5 | COc1ccc(CNc2nc(-c3cc(O)c(O)c(O)c3)nc3ccccc23)cc1 [Compound 33, 5-(4-(4-methoxybenzylamino)quinazolin-2-yl)benzene-1,2,3-triol] | 3260 ± 0.49
6 | COc1cc(-c2nc(NCCc3c[nH]c4ccccc34)c3ccccc3n2)cc(OC)c1OC [Compound 17, N-(2-(1H-indol-3-yl)ethyl)-2-(3,4,5-trimethoxyphenyl)quinazolin-4-amine] | 750 ± 0.21
7 | COc1cc(-c2nc(Nc3ccc4nc[nH]c4c3)c3ccccc3n2)cc(OC)c1OC [Compound 19, N-(3H-benzoimidazol-5-yl)-2-(3,4,5-trimethoxyphenyl)quinazolin-4-amine] | 430 ± 0.11
8 | Oc1cc(-c2nc(NCc3ccccc3)c3ccccc3n2)cc(O)c1O [Compound 29, 5-(4-(benzylamino)quinazolin-2-yl)benzene-1,2,3-triol] | 7000 ± 3.5
9 | COc1cc(-c2nc(Nc3ccc(O)cc3)c3ccccc3n2)cc(OC)c1OC [Compound 4, 4-(2-(3,4,5-trimethoxyphenyl)quinazolin-4-ylamino)phenol] | 300 ± 0.14
10 | COc1cc(-c2nc(Nc3ccccc3CO)c3ccccc3n2)cc(OC)c1OC [Compound 9, (2-(2-(3,4,5-trimethoxyphenyl)quinazolin-4-ylamino)phenyl)methanol] | 850 ± 0.07
11 | Oc1ccc(Nc2nc(-c3cc(O)c(O)c(O)c3)nc3ccccc23)cc1 [Compound 23, 5-(4-(4-hydroxyphenylamino)quinazolin-2-yl)benzene-1,2,3-triol] | 970 ± 0.84
12 | Oc1cc(-c2nc(Nc3ccc4c(c3)OCO4)c3ccccc3n2)cc(O)c1O [Compound 37, 5-(4-(benzo[d][1,3]dioxol-5-ylamino)quinazolin-2-yl)benzene-1,2,3-triol] | 5500 ± 6.36
13 | CCCCCCCCOc1ccc(Nc2nc(-c3cc(O)c(O)c(O)c3)nc3ccccc23)cc1 [Compound 25, 5-(4-(4-(octyloxy)phenylamino)quinazolin-2-yl)benzene-1,2,3-triol] | 4530 ± 0.31

Test system: Jurkat cells
Test: Jurkat cell proliferation, BrdU incorporation
Assay type: cell-based, human
Conditions: Homo sapiens, Jurkat, BrdU uptake; nM ± SD; read-out: IC50 Jurkat cells proliferation inhibition
Experimental: as §1, §2, §3

Row | SMILES | IC50 [nM]
14 | Oc1cc(-c2nc(NCc3ccc(Cl)c(Cl)c3)c3ccccc3n2)cc(O)c1O [Compound 32, 5-(4-(3,4-dichlorobenzylamino)quinazolin-2-yl)benzene-1,2,3-triol] | 3640 ± 0.54
15 | Oc1cc(-c2nc(NCc3ccc(F)c(F)c3)c3ccccc3n2)cc(O)c1O [Compound 31, 5-(4-(3,4-difluorobenzylamino)quinazolin-2-yl)benzene-1,2,3-triol] | 600 ± 0.21
16 | COc1cc(-c2nc(NCc3ccc(Cl)c(Cl)c3)c3ccccc3n2)cc(OC)c1OC [Compound 13, N-(3,4-dichlorobenzyl)-2-(3,4,5-trimethoxyphenyl)quinazolin-4-amine] | 730 ± 0.39
17 | COc1ccc(CNc2nc(-c3cc(O)c(O)c(O)c3)nc3ccccc23)cc1 [Compound 33, 5-(4-(4-methoxybenzylamino)quinazolin-2-yl)benzene-1,2,3-triol] | 5430 ± 0.76
18 | COc1cc(-c2nc(NCCc3c[nH]c4ccccc34)c3ccccc3n2)cc(OC)c1OC [Compound 17, N-(2-(1H-indol-3-yl)ethyl)-2-(3,4,5-trimethoxyphenyl)quinazolin-4-amine] | 700 ± 0.35
19 | Oc1cc(-c2nc(NCc3ccccc3)c3ccccc3n2)cc(O)c1O [Compound 29, 5-(4-(benzylamino)quinazolin-2-yl)benzene-1,2,3-triol] | 950 ± 0.07
20 | Oc1ccc(Nc2nc(-c3cc(O)c(O)c(O)c3)nc3ccccc23)cc1 [Compound 23, 5-(4-(4-hydroxyphenylamino)quinazolin-2-yl)benzene-1,2,3-triol] | 1120 ± 0.28
21 | CCCCCCCCOc1ccc(Nc2nc(-c3cc(O)c(O)c(O)c3)nc3ccccc23)cc1 [Compound 25, 5-(4-(4-(octyloxy)phenylamino)quinazolin-2-yl)benzene-1,2,3-triol] | 4250 ± 1.3

More lines, now with the values ahead:

Row | IC50 [nM] | SMILES
22 | 600 | COc1cc(-c2nc(Nc3ccc4c(c3)OCO4)c3ccccc3n2)cc(OC)c1OC [Compound 18, N-(benzo[d][1,3]dioxol-5-yl)-2-(3,4,5-trimethoxyphenyl) quinazolin-4-amine]
23 | 1500 ± 0.71 | COc1cc(-c2nc(Nc3ccc4nc[nH]c4c3)c3ccccc3n2)cc(OC)c1OC [Compound 19, N-(3H-benzoimidazol-5-yl)-2-(3,4,5-trimethoxyphenyl)quinazolin-4-amine]
24 | 230 ± 0.04 | COc1cc(-c2nc(Nc3ccc(O)cc3)c3ccccc3n2)cc(OC)c1OC [Compound 4, 4-(2-(3,4,5-trimethoxyphenyl)quinazolin-4-ylamino)phenol]
25 | 580 ± 0.18 | COc1cc(-c2nc(Nc3ccccc3CO)c3ccccc3n2)cc(OC)c1OC [Compound 9, (2-(2-(3,4,5-trimethoxyphenyl)quinazolin-4-ylamino)phenyl)methanol]
26 | 800 ± 0.28 | Oc1cc(-c2nc(Nc3ccc4c(c3)OCO4)c3ccccc3n2)cc(O)c1O [Compound 37, 5-(4-(benzo[d][1,3]dioxol-5-ylamino)quinazolin-2-yl)benzene-1,2,3-triol]

Test system: not given
Test: not given
Conditions: not given

Row | SMILES | melting point [°C]
27 | Oc1cc(-c2nc(NCc3ccc(Cl)c(Cl)c3)c3ccccc3n2)cc(O)c1O [Compound 32, 5-(4-(3,4-dichlorobenzylamino)quinazolin-2-yl)benzene-1,2,3-triol] | > 250
28 | Oc1cc(-c2nc(NCc3ccc(F)c(F)c3)c3ccccc3n2)cc(O)c1O [Compound 31, 5-(4-(3,4-difluorobenzylamino)quinazolin-2-yl)benzene-1,2,3-triol] | > 250
29 | COc1ccc(CNc2nc(-c3cc(O)c(O)c(O)c3)nc3ccccc23)cc1 [Compound 33, 5-(4-(4-methoxybenzylamino)quinazolin-2-yl)benzene-1,2,3-triol] | > 250
30 | COc1cc(-c2nc(NCCc3c[nH]c4ccccc34)c3ccccc3n2)cc(OC)c1OC [Compound 17, N-(2-(1H-indol-3-yl)ethyl)-2-(3,4,5-trimethoxyphenyl)quinazolin-4-amine] | > 250
31 | Oc1cc(-c2nc(NCc3ccccc3)c3ccccc3n2)cc(O)c1O [Compound 29, 5-(4-(benzylamino)quinazolin-2-yl)benzene-1,2,3-triol] | > 250
32 | CCCCCCCCOc1ccc(Nc2nc(-c3cc(O)c(O)c(O)c3)nc3ccccc23)cc1 [Compound 25, 5-(4-(4-(octyloxy)phenylamino)quinazolin-2-yl)benzene-1,2,3-triol] | > 250

The remaining lines, values ahead:

Row | melting point [°C] | SMILES
33 | > 250 | COc1cc(-c2nc(Nc3ccc4c(c3)OCO4)c3ccccc3n2)cc(OC)c1OC [Compound 18, N-(benzo[d][1,3]dioxol-5-yl)-2-(3,4,5-trimethoxyphenyl) quinazolin-4-amine]
34 | > 250 | COc1cc(-c2nc(Nc3ccc4nc[nH]c4c3)c3ccccc3n2)cc(OC)c1OC [Compound 19, N-(3H-benzoimidazol-5-yl)-2-(3,4,5-trimethoxyphenyl)quinazolin-4-amine]
35 | > 250 | COc1cc(-c2nc(Nc3ccc(O)cc3)c3ccccc3n2)cc(OC)c1OC [Compound 4, 4-(2-(3,4,5-trimethoxyphenyl)quinazolin-4-ylamino)phenol]
36 | > 250 | COc1cc(-c2nc(Nc3ccccc3CO)c3ccccc3n2)cc(OC)c1OC [Compound 9, (2-(2-(3,4,5-trimethoxyphenyl)quinazolin-4-ylamino)phenyl)methanol]
37 | > 250 | Oc1cc(-c2nc(Nc3ccc4c(c3)OCO4)c3ccccc3n2)cc(O)c1O [Compound 37, 5-(4-(benzo[d][1,3]dioxol-5-ylamino)quinazolin-2-yl)benzene-1,2,3-triol]
